Laboratory results as given in paper PMC5991599, “Anti‐tumor efficacy of a novel CLK inhibitor via targeting RNA splicing and MYC‐dependent vulnerability” (EMBO Molecular Medicine, 2018).

Legend:
Test in all cases: Panel of growth inhibition assays (OncoPanel 240)
Assay type in all cases: cell-based
240 cancer cell lines = details: hematological and solid cancer cell lines; 72 h; read-out: IC50 values, anti-proliferative activity
Experimental: (§1) The KINOMEScan‐based kinase selectivity assay was performed at the DiscoverX Corporation (Fremont, CA, USA). The panel of growth inhibition assay and subsequent bioinformatics analysis (Fig EV1) were performed at Eurofins Inc. (St. Charles, MO, USA), using OncoPanel 240 or 60. Details of the procedures of cell proliferation assay, caspase‐3/7 activity assay, immunoblotting, and immunohistochemistry are described in Appendix Supplementary Methods.
(§2) Panel of growth inhibition assay and subsequence bioinformatics analysis (at […]
(§3) A growth inhibition assay panel and subsequent bioinformatics analysis were performed at Eurofins Inc. (MO, U.S.A.) by utilizing Oncopanel240 or 60.
(§4) According to the study reports from Eurofins Inc., cells were seeded into 384 well plates at a single cell density in standardized media. After 24 hours, the test compounds were added and the plate was incubated continuously for 72 hours. Cells were then fixed and stained to visualize nuclei. The number of nuclei was counted and normalized.
(§5) Cellular response parameters were calculated using nonlinear regression to a sigmoidal single-site dose response model and the IC50 value of each cell line was calculated.
(§6) Genomic features were binned into six distinct categories, each of which was considered to be a “biomarker-positive” grouping: Mutated (non-synonymous, coding, and non-coding mutations), Amplified, Deleted, Overexpressed, Mutated or amplified (gain-of-function), and Mutated or deleted (loss-of-function). Two orthogonal significance tests were performed on each genomic feature as follows.
(§7) Student’s t-test: For each genomic feature within each of the six above categories, IC50 cell count values for biomarker-positive and biomarker-negative groups were […]

BV173 = details: Homo sapiens, BV-173; 72 h; leukemia; read-out: IC50 (Oncopanel, cell count)
Experimental: as §1, §2, §3, §4, §5, §6, §7

CMLT1 = details: CML-T1; 72 h; leukemia; read-out: IC50 (Oncopanel, cell count)
Experimental: as §1, §2, §3, §4, §5, §6, §7

HT = details: Homo sapiens, 72 h, lymphoma, read-out: IC50 (Oncopanel, cell count)
Experimental: as §1, §2, §3, §4, §5, §6, §7

ST486 = details: Homo sapiens, 72 h, lymphoma, read-out: IC50 (Oncopanel, cell count)
Experimental: as §1, §2, §3, §4, §5, §6, §7

`CNc1nc(NCc2ncccn2)c2c(-c3ccc4ncccc4c3)c[nH]c2n1` [T-025, N ^2‐methyl‐N ^4‐[pyrimidin‐2‐ylmethyl]‐5‐[quinolin‐6‐yl]‐7H‐pyrrolo[2,3‐d]pyrimidine‐2,4‐diamine] showed an IC50 (240 cancer cell lines) of 30 to 300 nM, an IC50 (BV173) of 21.8 nM and an IC50 (CMLT1) of 69.7 nM. It also gave an IC50 (HT) of 228 nM and an IC50 (ST486) of 57.1 nM.
